Experimental data taken from PubChem BioAssay (NCI).
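96-well plates; 48 h exposure; 5 concentrations. Endpoints by linear interpolation between flanking doses. Not reached: highest tested concentration assigned. TGI: total growth inhibition.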

Key:
Assay in all cases: growth of human tumour cells (NCI), 48 h
CCRF-CEM leukemia = system: CCRF-CEM leukemia
HS 578T breast = system: HS 578T breast
HT29 colon = system: HT29 colon
K-562 leukemia = system: K-562 leukemia
KM12 colon = system: KM12 colon
MALME-3M melanoma = system: MALME-3M melanoma
MOLT-4 leukemia = system: MOLT-4 leukemia
OVCAR-3 ovarian = system: OVCAR-3 ovarian
SF-539 CNS = system: SF-539 CNS
SW-620 colon = system: SW-620 colon

SMILES	TGI (CCRF-CEM leukemia)	TGI (HS 578T breast)	TGI (HT29 colon)	TGI (K-562 leukemia)	TGI (KM12 colon)	TGI (MALME-3M melanoma)	TGI (MOLT-4 leukemia)	TGI (OVCAR-3 ovarian)	TGI (SF-539 CNS)	TGI (SW-620 colon)
C=CCn1c(=O)c(C(=O)Nc2nc(C34CC5CC(CC(C5)C3)C4)cs2)c(O)c2ccccc21	> 100 µM	> 100 µM	> 100 µM	> 100 µM	> 100 µM	> 100 µM	> 100 µM	> 100 µM	> 100 µM	> 100 µM
NCCCN1c2ccccc2Sc2ccc(Cl)cc21	> 10 µM	> 10 µM	> 6.59 µM	> 8.41 µM	> 6.37 µM	> 10 µM	> 10 µM	> 10 µM	> 10 µM	> 7 µM
Cc1cccc(C)c1NC(=O)C(Cc1c[nH]c2ccccc12)NC(=O)OCc1ccccc1 (stereo not given)	76.9 µM	> 100 µM	68.7 µM	> 100 µM	57 µM	52.8 µM	63.7 µM	69.3 µM	41 µM	> 100 µM
O=c1[nH][nH]c(=O)n1CCCCCCn1c(=O)[nH][nH]c1=O	> 100 µM	> 100 µM	> 100 µM	> 100 µM	> 100 µM	> 100 µM	> 100 µM	> 100 µM	> 100 µM	> 100 µM
O=[N+]([O-])C(=C(Nc1cccc2cccnc12)Nc1cccc2cccnc12)C(Cl)=C(Cl)Cl	> 100 µM	> 100 µM	> 100 µM	> 100 µM	> 100 µM	> 100 µM	> 100 µM	> 100 µM	> 100 µM	> 100 µM
O=S(=O)(O)C(CO)c1ccccc1 (stereo not given) (tested in a mixture with another compound)	> 100 µM	> 100 µM	> 100 µM	> 100 µM	> 100 µM	> 100 µM	> 100 µM	> 100 µM	> 100 µM	> 100 µM
O=C(O)CN1CCNCCN(CC(=O)O)CCN(CC(=O)O)CCNCC1	> 100 µM	> 100 µM	> 100 µM	> 100 µM	> 100 µM	> 100 µM	> 100 µM	> 100 µM	> 100 µM	> 100 µM
S=C1NC2=C(CSC/C2=C\c2cccc(Br)c2)C(c2cccc(Br)c2)N1 (stereo not given)	> 100 µM	> 100 µM	> 100 µM	> 100 µM	> 100 µM	> 100 µM	> 100 µM	> 100 µM	> 100 µM	> 100 µM
Cc1nc(C)c(N2CCN([N+](=O)[O-])CC2)c(=O)[nH]1	> 100 µM	> 100 µM	> 100 µM	> 100 µM	> 100 µM	> 100 µM	> 100 µM	> 100 µM	> 100 µM	> 100 µM
